Test results reported in PMC9271885 (eBioMedicine, 2022).
Where “and” joins values, the source holds several entries; their conditions need not be identical. Equal values may be shown once. Read-outs that look alike come from different tables or passages of the source.

Assays:
[1] = system: SARS-CoV-2; assay: microbe, parasite or virus in culture; type: cell-based
[2] = system: SARS-CoV-2; assay: microbe, parasite or virus in culture; type: cell-based; settings: Severe acute respiratory syndrome coronavirus 2, 48 h; Caco-2 cells, viral RNA, 2 days incubation
[3] = in vitro
Method: (§1) One day prior to infection, 96-well culture plates were seeded with 5×10^4 Vero E6 or Caco-2 cells in 100µL assay medium per well (containing 2.5% FCS). […] After 15min, a preset amount of virus diluted in 25µL of assay medium was added to the wells. This quantity of virus was calibrated so that the viral replication was still in the exponential growth phase for the readout, as previously described, [28], [29] which correspond here to 150 TCID50 per well. Four “cell control” wells were supplemented with 50µL of assay medium without any compounds or virus. On each culture plate, a positive control compound (Remdesivir, BLDpharm) was added in duplicate with eight 2-fold serial dilutions (0.16µM to 20µM). Plates were incubated for 2 days at 37°C prior to quantification of the viral genome by real-time RT-PCR as described below. For the determination of the 50% cytotoxic concentrations (CC50; compound concentration required to reduce by 50% cell viability), the same culture conditions were used, without addition of the virus, and cell viability was measured using CellTiter Blue® (Promega) following manufacturer's instructions. EC50, EC90 and CC50 were determined using logarithmic interpolation as previously described.[28] The selectivity index of the compounds was calculated as the ratio of the CC50 over the EC50.

[4] = system: SARS-CoV-2; type: cell-based; settings: bronchial human airway epithelium
[5] = system: SARS-CoV-2; assay: Lung histopathological changes in infected hamsters (cumulative score, grade of severity); type: in vivo, Syrian hamsters
Method: The anatomo-histological study was implemented as previously described.[24]^,[26] Briefly, lungs were collected after intratracheal instillation of 4% (w/v) formaldehyde solution, and then fixed 72h at room temperature with a 4% (w/v) formaldehyde solution before being embedded in paraffin. Tissue sections of 3.5µm were stained with hematoxylin-eosin (H&E) and blindly analyzed by a certified veterinary pathologist. Microscopic examination was done using a Nikon Eclipse E400 microscope. Different anatomic compartments were examined (1) for bronchial and alveolar walls, a score of 0 to 4 was assigned based on severity of inflammation; (2) regarding alveoli, a score of 0 to 2 was assigned based on presence and severity of hemorrhagic necrosis; (3) regarding vessel changes (leucocytic accumulation in vascular wall or in endothelial compartment), absence or presence was scored 0 or 1 respectively. A cumulative score was then calculated and assigned to a grade of severity (see Supplementary Table 4).
Groups of 4 hamsters, intranasally infected with 10^4 TCID50 of SARS-CoV-2, were orally treated at a dose of 500mg/kg/day BID for 4 days (0, 1, 2 and 3 dpi) (Figure 4a). Untreated hamsters (group of 4 animals) received the suspension vehicle BID. Animals were sacrificed at 5 dpi and a cumulative score from 0 to 10 (taking into account severity of inflammation, alveolar hemorrhagic necrosis and vessel lesions) was calculated and then assigned to a grade of severity (0=normal; 1=mild; 2=moderate; 3=marked and 4=severe; details in Supplementary Data 4).

[6] = Population pharmacokinetic modelling and simulation of TIZ in hamster (LC-MS/MS, NONMEM); settings: in vivo
Method: At each time point, approximate 80µl of blood were collected from the submandibular vein or the saphenous vein of hamsters. All samples were transferred into commercial K2-EDTA tubes, placed on ice until processed for plasma extraction by centrifugation and stored at −70°C before analysis. A LC-MS/MS-AI Triple Quad 5500 was used to determine TIZ concentrations. The mobile phase was a gradient of 0.1% formic acid (FA) in water and 0.1% of FA in acetonitrile (ACN), the column was an ACQUITY UPLC HSS T3 1.8 μm 2.1 × 50mm. For mass spectrometry a positive electrospray ionization was used, and a selected reaction monitoring was set to select TIZ: [M+H]+m/z: 266.0 / 121.2 and dexamethasone: [M+H]+m/z: 393.0 / 373.1 as internal standard.
Pharmacokinetic profiles of TIZ in hamster were analyzed using a nonlinear mixed-effects modelling approach. The population pharmacokinetics analysis was performed using NONMEM® version 7.4. The final pharmacokinetic model was established by evaluating one-, two-, and three-compartment disposition models, as well as several different absorption models (i.e. first-order absorption, first-order absorption with lag time, and transit absorption models). The inter-individual variabilities of pharmacokinetic parameters were implemented as a log-normal distribution and the residual unexplained variability was modelled as an exponential error.

[7] = system: SARS-CoV-2; settings: Vero E6 cells at 48 h post-infection; read-out: 50% effective concentration (EC50); cited from earlier work
[8] = system: Vero E6 cells; assay: in vitro; settings: African green monkey, 2 days
Method: as §1

[9] = in vivo, cited from earlier work
[10] = Severe acute respiratory syndrome coronavirus 2, Vero C1008, 48 h, Vero E6 cells, viral RNA, 2 days incubation
[11] = Severe acute respiratory syndrome coronavirus 2, Vero C1008, 48 h, Vero E6 cells, viral RNA, 2 days incubation, read-out: EC50
[12] = nitazoxanide 500mg/kg/day per os BID, day of sacrifice 5, individual animals

With `CC(=O)Oc1ccccc1C(=O)Nc1ncc([N+](=O)[O-])s1` [NTZ, Nitazoxanide] the EC90 [1, 10] was 10.3 µM, the EC50 [1, 11] was 3.19 µM and the EC50 ([1]; Vero E6 cells, viral RNA, 2 days incubation, read-out: EC50) was < 5 µM. The EC90 [2] was 1.75 µM, the CC50 at 2 days ([3]; African green monkey, CC50, Vero E6 cells, no virus) was > 60 µM and the CC50 at 2 days ([3]; human) was 9.15 µM. For the same compound, the “effective NTZ concentrations ex vivo” value [4] was 5 µM, the “effective NTZ concentrations ex vivo” value ([4]; conversion of 5µM) was 1.54 µg/mL and the “histopathological cumulative scores in lungs vs untreated” value ([5]; NTZ 500mg/kg/day BID oral for 4 days, sacrificed at 5 dpi) was “no significant difference”. The “Histologic scores Bronchitis” value [5, 12] was 4 and 3, the “Histologic scores Endothelitis / Vasculitis” value [5, 12] was 1 and the “Histologic scores Hemorrhagic necrosis” value [5, 12] was 0 and 1. For the same compound, the “Histologic scores Interstitial pneumonia” value [5, 12] was 4 and 3, the “Histologic scores Total score” value [5, 12] was 9 and 10 and 8 and 7 and the “Histologic scores Grade” value ([5]; nitazoxanide 500mg/kg/day per os BID, day of sacrifice 5, individual animals, grade printed as number) was 4 and 3. For the same compound, the “V/F volume of distribution of the central compartment, population estimate (%RSE)” value [6] was 0.128 (48.3) L, the “CL/F oral clearance, population estimate (%RSE)” value ([6]; po) was 0.651 (11.9) L/h and the EC50 [7] was 2.12 µM.
`O=C(Nc1ncc([N+](=O)[O-])s1)c1ccccc1O` [TIZ, tizoxanide] gave an EC90 [1, 10] of 9.27 µM, an EC50 [1, 11] of 7.48 µM and an EC50 ([1]; Severe acute respiratory syndrome coronavirus 2, Vero C1008, read-out: EC50 expressed in µg/mL) of 1.98 µg/mL. For the same compound, the “Selectivity Index (SI=CC50/EC50)” value ([1]; Vero E6 cells) was “higher than 13.3”, the CC50 at 2 days ([3]; African green monkey, CC50) was > 60 µM and the CC50 [8] was > 100 µM. The Tmax ([6]; Syrian, po) was 16.6 min, the half-life ([6]; Syrian, po) was 48 min and the Tmax ([9]; human) was “approximately 2 hours”. For the same compound, the apparent clearance [9] was 19.34 L/h and the volume of distribution [9] was 38.68 L.
